# Source: patent US20110289632A1, “METHYLKETONE SYNTHASE, PRODUCTION OF METHYLKETONES IN PLANTS AND BACTERIA” (The Regents of the University of Michigan, priority 2009, published 2011)
# Tests used:
# E. coli BL21 cells = assay: Headspace SPME GC-MS of E. coli cultures expressing ShMKS2 or SlMKS2; format: cell-based, Escherichia coli; conditions: IPTG induction, overnight growth
# Protocol: To investigate the biochemical activity of MKS2, the full ORFs of the wild-species allele (ShMKS2) and the cultivated allele (SlMKS2) were amplified and ligated into an E. coli expression vector (see Examples, Materials and Methods). These vectors were introduced into E. coli BL21cells and ShMKS2 or SlMKS2 expression was induced by the addition of IPTG (see Examples, Materials and Methods). After induction and overnight growth, the culture was analyzed by solid-phase microextraction (SPME) of its headspace followed by gas chromatography-mass spectrometry (GC-MS; see Examples, Materials and Methods). The major compound in the headspace of the E. coli cells expressing ShMKS2 was identified as 2TD (FIG. 8A). Lower amounts of 2UD and 2-pentadecanone were also detected, as well as the reduced alcohol forms of 2UD and 2TD (i.e., 2-undecanol and 2-tridecanol). […] The headspace also contained 2-nonanol and 2-undecanol (FIG. 8B). However, the major headspace compound produced by SlMKS2-expressing cells eluted slightly later than 2TD (peak labeled “1” in FIG. 8B, and also present at lower levels in the chromatograph in FIG. 8A).
# The sequence of these cDNAs was verified and transferred into the E. coli expression vector pHis9GW following Auldridge et al. (submitted). The pHis9GW vectors carrying ShMKS2 or SlMKS2 were mobilized into E. coli […] cells, and gene expression was induced by the addition of 2 mM IPTG after the culture OD595 value had reached 0.6-0.7. After IPTG addition, ShMKS2- and SlMKS2-expressing bacterial cells were grown at 30° C. or 18° C. overnight.
# After induction with IPTG and growth overnight, 1 mL of culture was placed in a glass vial at 42° C. The vial was capped with a screw cap in which a small hole had been bored. The needle of a SPME device was inserted into the vial through the hole in the cap and the fiber extended for 30 min. for volatile collection, after which the fiber was withdrawn and then injected into the GC. […]
# 3-ketomyristoyl-ACP = assay: In vitro thioesterase activity assay; format: biochemical; conditions: 2.5 μg protein, 30 min at 23° C., then acid and heat
# Protocol: To examine the potential thioesterase activity of ShMKS1 and ShMKS2 in vitro, we added 2.5 μg of each protein to a 500 μL solution of freshly prepared 3-ketomyristoyl-ACP. This protein-linked substrate was prepared using a sequential in vitro enzymatic system involving the addition of multiple starting materials and enzymes and the reaction allowed to proceed for 5 hr (see Examples, Materials, and Methods). Due to the highly unstable nature of 3-ketomyristoyl-ACP, this compound was not further purified but instead the solution in which it was synthesized was used as the “substrate solution” for qualitative in vitro thioesterase activity assays.
# Aliquots of this substrate solution were incubated with buffer, ShMKS1, ShMKS2, or both ShMKS1 and ShMKS2 for 30 min at 23° C. […]
# 3-Ketomyristoyl-ACP was synthesized in a 500 μL reaction volume containing 1,3-bis(tris(hydroxymethyl)methylamino) propane (20 mM, pH 7.0), malonyl-CoA (0.2 mM), lauroyl-CoA (0.2 mM), ShACP (0.1 mM), EcFabD (10 μg) and MtFabH (10 μg). […] Hexane extracts were analyzed by GC-MS as described above. The values for heat-treated samples shown in FIG. 20 were corrected for loss of methylketones during the heating step, as determined by comparisons with standards.
# E. coli cells = assay: GC-MS of methylketones in spent media of E. coli cells expressing ShMKS1, ShMKS2 or ShMKS2 (D79A); format: cell-based, Escherichia coli
# Protocol: To test if expression of either ShMKS1 or ShMKS2 (without its transit peptide) in E. coli results in the formation of 3-ketoacids, we collected spent media of bacterial cells expressing each of them (by centrifuging out the cells at the end of the incubation period), heated the spent media at 75° C. for 30 min in the presence of 1 M sulfuric acid, extracted with hexane, then injected the hexane fraction in a GC-MS. […] On the other hand, the spent medium of E. coli cells expressing ShMKS2 contained 5.6±0.32 μg/μL of total methylketones, and the amount of methylketones increased […], to 40.7±2.1 μg/μL, after the spent medium was treated with acid and heat (FIG. 17).
# The coding regions of ShMKS1 and ShMKS2 (minus the transit peptide-encoding region) were each amplified by PCR and inserted into the E. coli expression vector pEXP-TOPO-CT (Invitrogen). The expression vectors were introduced into E. coli BL21 Star (DE3) cells, and gene expression was induced by the addition of 0.5 mM IPTG after the culture optical density at 600 nm had reached 0.65. After induction with IPTG and growth at 18° C. overnight, the cells expressing ShMKS1 or ShMKS2 were centrifuged at 5000 rpm for 15 minutes, and 1-mL aliquots of the spent medium were placed in individual vials for further analysis.
# Aliquots (1 mL) of the spent medium of E. coli expressing ShMKS2, obtained by centrifuging the culture solution after the incubation time at 5,000 rpm for 15 min and collecting the solution without the cells, were treated in the following ways: 1. Incubated with 40 μl (3 μg) of purified MKS1 in phosphate buffer (12.5 mM NaH2PO4, 125 mM NaCl, 2 mM DTT, pH 6.8) for 2 hrs at 30° C. 3. Incubated at 75° C. for 30 min followed by 30 min at 30° C. 4. Incubated with 1 mL of 2M H2SO4 at 75° C. for 30 min followed by 30 min at 30° C. After the various treatments, 1 mL of hexane containing 5 ng/μL linalool as an internal standard was added and the resulting mixture was vortexed and centrifuged at 5000 rpm for 10 min. Two μL of the resulting extract were injected into the GC-MS for determination of methylketones. GC-MS and product analysis were performed as described by Ben-Israel et al, (2009) Multiple biochemical and morphological factors underlie the production of methylketones in tomato trichomes, Plant Physiology 151: 1952-1964.
# [1] = In vitro decarboxylase activity assay; format: biochemical; conditions: substrate 3-ketomyristic acid
# Protocol: To examine the possible decarboxylase activity of ShMKS1 as well as ShMKS2 in vitro, we tested homogenous recombinant ShMKS1 and partially purified recombinant ShMKS2 proteins (without their transit peptides) for their ability to convert 3-ketomyristic acid into its 2-tridecanone decarboxylated product. […] In steady-state kinetic assays, ShMKS1 was determined to have a KM of 18.4±5.6 μM for 3-ketomyristic acid, with an apparent kcat of 227.9±24.1 min^−1.
# A typical decarboxylase assay consisted of a 500 μL reaction solution containing ShMKS1 or ShMKS2 (2.5 μg), 3-ketomyristic acid (0.1 mM), and 1,3-bis(tris(hydroxymethyl)methylamino) propane—Na^+ (20 mM, pH 7.0). For measuring kinetic parameters, substrate concentrations ranged from 5 μM to 75 μM. Assays were performed at 23° C. for 10 min after addition of protein. […] Reaction products (5 μL) were analyzed by a modified procedure, as described in O'Maille et al (2004) A single-vial analytical and quantitative gas chromatography-mass spectrometry assay for terpene synthases. […] Product quantification was performed using total ion monitoring (TIM) mode where all ions in the mass spectrum contribute to the measured response. […] 2-Tridecanone was quantified by integration of peak areas using Enhanced Chemstation (version B.01.00, Agilent Technologies). […]
# [2] = combined heat and acid treatment
# [3] = heated at 75° C. for 30 min, no sulfuric acid
substance,measurement,setting,value
"SlMKS2: methylketone synthase 2, cultivated tomato S. lycopersicum allele (SEQ ID NO: 3)",major compound in the headspace of E. coli cells expressing the enzyme,E. coli BL21 cells,2-tridecenone
same,two main MK in the headspace,E. coli BL21 cells,2UD as well as 2-nonanone
ShMKS2: methylketone synthase 2 from Solanum habrochaites glabratum (SEQ ID NO: 4 / 25); thioesterase hydrolyzing 3-ketoacyl-ACPs,amount of 2-tridecanone formed vs buffer-incubated substrate solution treated with acid and heat,3-ketomyristoyl-ACP,approximately 3 fold
same,increase of amount of methylketones after acid and heat treatment,E. coli cells; acid and heat treated vs untreated spent medium,8 fold
same,total methylketones in spent medium,"E. coli cells; after spent medium was treated with acid and heat (1 M sulfuric acid, 75° C., 30 min)",40.7 ± 2.1 µg/µL
same,2-nonanone in spent medium,E. coli cells; [2],0.95 ± 0.04 µg/µL
same,"2-nonanone, fold over non-treated control",E. coli cells; [2],19.1 fold
same,2-pentadecenone in spent medium,E. coli cells; [2],5.69 ± 0.21 µg/µL
same,"2-pentadecenone, fold over non-treated control",E. coli cells; [2],4.4 fold
same,2-tridecanone in spent medium,E. coli cells; [2],11.99 ± 0.51 µg/µL
same,"2-tridecanone, fold over non-treated control",E. coli cells; [2],4.6 fold
same,2-tridecenone in spent medium,E. coli cells; [2],13.04 ± 0.63 µg/µL
same,"2-tridecenone, fold over non-treated control",E. coli cells; [2],11.8 fold
same,2-undecanone in spent medium,E. coli cells; [2],9.33 ± 0.61 µg/µL
same,"2-undecanone, fold over non-treated control",E. coli cells; [2],18.3 fold
same,"2-nonanone, fold over non-treated control",E. coli cells; heat only,11.9 fold
same,"2-pentadecenone, fold over non-treated control",E. coli cells; heat only,3.0 fold
same,"2-tridecanone, fold over non-treated control",E. coli cells; heat only,3.7 fold
same,"2-tridecenone, fold over non-treated control",E. coli cells; heat only,9 fold
same,"2-undecanone, fold over non-treated control",E. coli cells; heat only,12.2 fold
same,2-nonanone in spent medium,E. coli cells; [3],0.60 ± 0.05 µg/µL
same,2-pentadecenone in spent medium,E. coli cells; [3],3.94 ± 0.54 µg/µL
same,2-tridecanone in spent medium,E. coli cells; [3],9.61 ± 0.27 µg/µL
same,2-tridecenone in spent medium,E. coli cells; [3],9.94 ± 0.83 µg/µL
same,2-undecanone in spent medium,E. coli cells; [3],6.22 ± 0.34 µg/µL
same,2-nonanone in spent medium,E. coli cells; untreated spent medium,0.05 µg/µL
same,2-pentadecenone in spent medium,E. coli cells; untreated spent medium,1.3 µg/µL
same,2-tridecanone in spent medium,E. coli cells; untreated spent medium,2.6 µg/µL
same,2-tridecenone in spent medium,E. coli cells; untreated spent medium,1.1 µg/µL
same,2-undecanone in spent medium,E. coli cells; untreated spent medium,0.51 µg/µL
same,total methylketones in spent medium,E. coli cells; untreated spent medium,5.6 ± 0.32 µg/µL
same,major compound in the headspace of E. coli cells expressing the enzyme,E. coli BL21 cells,2TD
same,decarboxylase activity,[1],no decarboxylase activity
